Laboratory results published in ChEMBL document CHEMBL1201862, “PubChem BioAssay data set” (2004).
Active and inactive are the calls of the source.

What was measured:
[1] = target: Hepatocyte nuclear factor 4-alpha (Homo sapiens, UniProt P41235); assay type: functional, cell-based;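 also: biochemical luminescence-based dose-response counterscreen measuring inhibition of HNF4 dimerization, run alongside a screen for blockers of ABHD5–perilipin-5 interaction; split luciferase complementation of HNF4 fusion proteins in cell lysate measuring dimerization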
[2] = target: T1, Neuropeptides B/W receptor type 1 (Homo sapiens, UniProt P48145); experiment: human NPBW1 receptor blockade, IC50 – cell-based, fluorescence, dose response, set 5, late-stage follow-up (AID 588566); assay type: functional
T1 sequence (P48145 whole entry): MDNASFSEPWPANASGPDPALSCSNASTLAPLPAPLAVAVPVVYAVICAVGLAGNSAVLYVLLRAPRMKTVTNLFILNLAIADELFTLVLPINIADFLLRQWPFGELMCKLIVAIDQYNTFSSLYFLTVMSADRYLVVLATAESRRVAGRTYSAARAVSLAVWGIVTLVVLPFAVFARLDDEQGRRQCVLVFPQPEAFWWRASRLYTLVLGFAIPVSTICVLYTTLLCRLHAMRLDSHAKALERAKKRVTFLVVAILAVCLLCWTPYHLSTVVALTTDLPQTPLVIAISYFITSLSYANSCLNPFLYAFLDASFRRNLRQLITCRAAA

[3] = target: Melanin-concentrating hormone receptor 1 (Homo sapiens, UniProt Q99705); experiment: Late-stage fluorescence-based counterscreen for antagonists of the G-protein coupled receptor 7 (GPR7): cell-based dose response assay to identify antagonists of the melanin-concentrating hormone receptor 1 (MCHR1) Set 5.; assay type: functional
[4] = inhibition of ARNT PAS-B/TACC3 complex formation – biochemical, AlphaScreen, cherry-picked samples, confirmation (AID 651703); assay type: functional, Homo sapiens;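 also: His-tagged ARNT PAS-B domain paired with GST-TACC3 E629A dimer coactivator fragment; potency of inhibitors that break up the complex and lower AlphaScreen signal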
[5] = target: T2, Voltage-gated N-type calcium channel alpha-1B subunit/Amyloid beta A4 precursor protein-binding family A member 1 (Homo sapiens, UniProt Q00975+Q02410); assay type: protein assay
[6] = target: T2, Voltage-gated N-type calcium channel alpha-1B subunit/Amyloid beta A4 precursor protein-binding family A member 1; assay type: protein assay; remark: listed apart in the source
[7] = target: T3, Carboxy-terminal domain RNA polymerase II polypeptide A small phosphatase 1 (Homo sapiens, UniProt Q9GZU7); experiment: CTDSP1 inhibitors, concentration-response, biochemical, absorbance readout, ultra-high-throughput screen actives (AID 540297); assay type: functional
T3 sequence (Q9GZU7 whole entry): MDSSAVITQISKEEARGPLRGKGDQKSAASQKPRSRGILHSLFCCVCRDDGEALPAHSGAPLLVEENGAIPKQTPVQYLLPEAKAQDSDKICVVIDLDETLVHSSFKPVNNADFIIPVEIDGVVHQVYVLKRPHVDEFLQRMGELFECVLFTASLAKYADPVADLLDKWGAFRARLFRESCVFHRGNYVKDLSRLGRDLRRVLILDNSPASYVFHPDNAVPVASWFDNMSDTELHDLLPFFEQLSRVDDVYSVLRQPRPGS

[8] = target: DNA (cytosine-5)-methyltransferase 1 (Homo sapiens, UniProt P26358); experiment: inhibition of DNA methylation by DNMT1 – biochemical, fluorescent molecular beacon, confirmation (AID 602386); assay type: functional
[9] = target: T4, Small ubiquitin-related modifier 1 (Homo sapiens, UniProt P63165); experiment: SUMO1 protein interaction blockers, potency – biochemical, fluorescence polarization, uHTS hits, dose response (AID 624382); assay type: functional; conditions: read-out: IC50_Mean
[10] = target: T4, Small ubiquitin-related modifier 1; experiment: SUMO1 protein-protein binding blockers, potency – biochemical, FRET, dose response (AID 624383); assay type: functional; conditions: read-out: IC50_Mean
[11] = target: T5, Low molecular weight phosphotyrosine protein phosphatase (Homo sapiens, UniProt P24666); assay type: functional; conditions: read-out: IC50_Mean;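 also: Dose-response confirmation assay measuring inhibition of LMPTP enzyme activity by fluorescence intensity read-out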
T5 sequence (P24666 whole entry): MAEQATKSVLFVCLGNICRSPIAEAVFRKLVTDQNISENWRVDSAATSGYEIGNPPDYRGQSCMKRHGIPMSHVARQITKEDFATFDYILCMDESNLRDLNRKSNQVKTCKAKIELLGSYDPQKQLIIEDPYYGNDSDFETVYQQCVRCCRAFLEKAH

[12] = target: T6, Tyrosine-protein phosphatase non-receptor type 22 (Homo sapiens, UniProt Q9Y2R2); experiment: PTPN22 enzyme inhibitors – biochemical, fluorescence, LYP catalytic domain, selectivity assay for LMPTP inhibitor project, dose response (AID 652006); assay type: functional; conditions: read-out: IC50_Mean
T6 sequence (Q9Y2R2 whole entry): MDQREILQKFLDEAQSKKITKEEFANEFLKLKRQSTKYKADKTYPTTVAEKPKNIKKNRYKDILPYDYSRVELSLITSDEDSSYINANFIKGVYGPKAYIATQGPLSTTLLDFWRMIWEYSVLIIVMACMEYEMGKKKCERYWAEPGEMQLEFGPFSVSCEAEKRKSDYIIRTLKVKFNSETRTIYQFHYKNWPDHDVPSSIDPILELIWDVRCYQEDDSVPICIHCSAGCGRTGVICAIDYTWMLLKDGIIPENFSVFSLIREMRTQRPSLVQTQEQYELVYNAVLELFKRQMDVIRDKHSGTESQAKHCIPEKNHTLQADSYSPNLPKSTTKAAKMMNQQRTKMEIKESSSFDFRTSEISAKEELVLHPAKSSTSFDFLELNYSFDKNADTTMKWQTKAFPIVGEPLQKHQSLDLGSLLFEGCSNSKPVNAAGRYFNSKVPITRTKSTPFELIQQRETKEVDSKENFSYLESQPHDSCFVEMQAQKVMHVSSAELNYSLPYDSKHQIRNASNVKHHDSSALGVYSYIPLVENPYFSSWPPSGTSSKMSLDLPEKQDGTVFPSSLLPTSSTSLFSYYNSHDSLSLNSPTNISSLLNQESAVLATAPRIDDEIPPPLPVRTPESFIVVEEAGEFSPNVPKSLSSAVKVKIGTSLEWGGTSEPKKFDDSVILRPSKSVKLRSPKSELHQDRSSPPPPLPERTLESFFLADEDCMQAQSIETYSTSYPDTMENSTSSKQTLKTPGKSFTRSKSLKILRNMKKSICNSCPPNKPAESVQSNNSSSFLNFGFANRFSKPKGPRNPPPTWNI

[13] = cAMP pathway inhibition in counterscreen cell line – TR-FRET cAMP detection, counter-screen for MC4R biased antagonist project, dose response (AID 602305); assay type: functional, cell-based;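 also: U2OS cells stimulated with forskolin near its EC80 as the cAMP inducer; potency is for inhibition of forskolin-stimulated cAMP signaling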
[14] = Fluorescence-based cell-based high throughput dose response assay for inhibitors of the interaction of nucleotide-binding oligomerization domain containing 2 (NOD2) and the receptor-interacting serine-threonine kinase 2 (RIPK2).; assay type: functional; conditions: Homo sapiens
Beta Lactamase = Beta Lactamase (Pseudomonas aeruginosa, UniProt Q932Y6); experiment: BLA reporter interference, concentration series – BLA reporter cells, FRET fluorescence, artefact control for NOD2-RIPK2 interaction inhibitor project, dose response (AID 651552); assay type: functional, cell-based
Fatty acid synthase = Fatty acid synthase (Homo sapiens, UniProt P49327); experiment: inhibition of human FAS-TE enzyme activity – biochemical, kinetic fluorescence intensity, dose response (AID 624326); assay type: functional;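 also: rate of fluorescence rise from hydrolysis of a fluorogenic O-methyl fluorescein ester substrate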
[15] = Vero cell cytotoxicity, cytotoxicity control for M. tuberculosis inhibitor project, purified and synthesized samples, set 3 (AID 504684); assay type: functional
[16] = THP-1 cell cytotoxicity, cytotoxicity control, set 4 (AID 504911); assay type: functional; conditions: Mycobacterium tuberculosis
Interleukin-8 = target: T7, Interleukin-8 (Homo sapiens, UniProt P10145); experiment: Dose Response confirmation of uHTS small molecule hits for cystic fibrosis induced NFkb Inhibitors in a PAF-induced IL8 counterscreen.; assay type: functional; conditions: read-out: IC50_Mean
T7 sequence (P10145 whole entry): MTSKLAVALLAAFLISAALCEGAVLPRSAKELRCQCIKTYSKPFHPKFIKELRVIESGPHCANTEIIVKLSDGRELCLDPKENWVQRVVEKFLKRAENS

T2 sequence (Q00975 whole entry): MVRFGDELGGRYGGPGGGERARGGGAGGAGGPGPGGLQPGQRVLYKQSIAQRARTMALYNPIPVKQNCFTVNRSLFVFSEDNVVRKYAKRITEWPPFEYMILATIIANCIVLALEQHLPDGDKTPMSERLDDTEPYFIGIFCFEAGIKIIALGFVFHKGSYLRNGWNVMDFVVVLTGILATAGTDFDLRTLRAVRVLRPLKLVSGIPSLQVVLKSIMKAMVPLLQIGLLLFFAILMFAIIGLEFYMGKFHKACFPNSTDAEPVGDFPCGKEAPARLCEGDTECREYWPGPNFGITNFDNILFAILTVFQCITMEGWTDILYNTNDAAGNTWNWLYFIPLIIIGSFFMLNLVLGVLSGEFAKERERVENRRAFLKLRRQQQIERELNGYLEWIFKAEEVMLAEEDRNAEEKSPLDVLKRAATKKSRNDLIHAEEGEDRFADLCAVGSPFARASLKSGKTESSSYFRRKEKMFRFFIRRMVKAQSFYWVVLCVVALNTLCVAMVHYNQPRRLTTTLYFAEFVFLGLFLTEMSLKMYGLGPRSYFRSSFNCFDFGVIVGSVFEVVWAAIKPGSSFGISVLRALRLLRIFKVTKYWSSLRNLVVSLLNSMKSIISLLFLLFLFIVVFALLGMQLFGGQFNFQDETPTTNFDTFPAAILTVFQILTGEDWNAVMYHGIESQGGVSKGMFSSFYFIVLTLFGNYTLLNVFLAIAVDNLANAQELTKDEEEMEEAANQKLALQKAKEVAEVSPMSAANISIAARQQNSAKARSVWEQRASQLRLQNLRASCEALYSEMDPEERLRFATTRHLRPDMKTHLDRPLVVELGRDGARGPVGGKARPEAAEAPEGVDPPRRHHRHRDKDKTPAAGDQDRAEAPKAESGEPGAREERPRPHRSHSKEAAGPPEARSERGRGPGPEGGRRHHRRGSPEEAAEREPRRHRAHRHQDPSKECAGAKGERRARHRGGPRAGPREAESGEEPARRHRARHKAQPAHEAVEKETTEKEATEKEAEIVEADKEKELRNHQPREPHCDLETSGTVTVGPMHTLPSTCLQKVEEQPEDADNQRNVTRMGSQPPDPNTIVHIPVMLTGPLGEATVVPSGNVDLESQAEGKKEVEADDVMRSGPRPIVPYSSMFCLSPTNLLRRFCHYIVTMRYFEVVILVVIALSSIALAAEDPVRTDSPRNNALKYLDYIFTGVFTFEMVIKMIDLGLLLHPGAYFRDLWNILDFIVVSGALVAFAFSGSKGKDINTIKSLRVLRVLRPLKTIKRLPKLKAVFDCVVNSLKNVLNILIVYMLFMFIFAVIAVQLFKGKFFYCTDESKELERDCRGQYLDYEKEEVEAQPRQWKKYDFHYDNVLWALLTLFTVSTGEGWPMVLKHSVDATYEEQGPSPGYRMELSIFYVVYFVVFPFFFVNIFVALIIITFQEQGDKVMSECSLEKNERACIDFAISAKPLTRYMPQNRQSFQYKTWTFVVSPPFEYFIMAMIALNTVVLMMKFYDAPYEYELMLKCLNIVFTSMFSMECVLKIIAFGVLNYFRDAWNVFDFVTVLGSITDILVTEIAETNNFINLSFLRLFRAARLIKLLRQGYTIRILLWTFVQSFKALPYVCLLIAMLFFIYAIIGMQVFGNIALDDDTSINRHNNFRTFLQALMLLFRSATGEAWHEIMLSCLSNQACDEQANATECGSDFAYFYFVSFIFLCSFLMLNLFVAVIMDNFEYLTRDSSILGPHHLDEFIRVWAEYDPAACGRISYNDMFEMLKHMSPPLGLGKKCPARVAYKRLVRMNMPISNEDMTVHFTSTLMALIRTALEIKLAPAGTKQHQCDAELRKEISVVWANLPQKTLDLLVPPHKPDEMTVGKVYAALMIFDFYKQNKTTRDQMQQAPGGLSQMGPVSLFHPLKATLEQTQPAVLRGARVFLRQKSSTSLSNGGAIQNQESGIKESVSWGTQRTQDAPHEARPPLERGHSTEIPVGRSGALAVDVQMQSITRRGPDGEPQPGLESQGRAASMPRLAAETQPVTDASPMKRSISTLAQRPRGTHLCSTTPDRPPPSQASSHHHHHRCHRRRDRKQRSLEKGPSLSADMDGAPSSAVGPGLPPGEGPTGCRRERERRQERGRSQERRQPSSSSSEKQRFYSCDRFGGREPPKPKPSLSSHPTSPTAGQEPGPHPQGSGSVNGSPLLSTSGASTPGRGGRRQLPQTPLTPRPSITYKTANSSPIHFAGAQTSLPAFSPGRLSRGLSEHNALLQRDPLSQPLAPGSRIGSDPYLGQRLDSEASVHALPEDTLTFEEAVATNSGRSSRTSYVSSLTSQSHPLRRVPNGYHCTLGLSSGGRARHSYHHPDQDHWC
T2 sequence (Q02410 whole entry): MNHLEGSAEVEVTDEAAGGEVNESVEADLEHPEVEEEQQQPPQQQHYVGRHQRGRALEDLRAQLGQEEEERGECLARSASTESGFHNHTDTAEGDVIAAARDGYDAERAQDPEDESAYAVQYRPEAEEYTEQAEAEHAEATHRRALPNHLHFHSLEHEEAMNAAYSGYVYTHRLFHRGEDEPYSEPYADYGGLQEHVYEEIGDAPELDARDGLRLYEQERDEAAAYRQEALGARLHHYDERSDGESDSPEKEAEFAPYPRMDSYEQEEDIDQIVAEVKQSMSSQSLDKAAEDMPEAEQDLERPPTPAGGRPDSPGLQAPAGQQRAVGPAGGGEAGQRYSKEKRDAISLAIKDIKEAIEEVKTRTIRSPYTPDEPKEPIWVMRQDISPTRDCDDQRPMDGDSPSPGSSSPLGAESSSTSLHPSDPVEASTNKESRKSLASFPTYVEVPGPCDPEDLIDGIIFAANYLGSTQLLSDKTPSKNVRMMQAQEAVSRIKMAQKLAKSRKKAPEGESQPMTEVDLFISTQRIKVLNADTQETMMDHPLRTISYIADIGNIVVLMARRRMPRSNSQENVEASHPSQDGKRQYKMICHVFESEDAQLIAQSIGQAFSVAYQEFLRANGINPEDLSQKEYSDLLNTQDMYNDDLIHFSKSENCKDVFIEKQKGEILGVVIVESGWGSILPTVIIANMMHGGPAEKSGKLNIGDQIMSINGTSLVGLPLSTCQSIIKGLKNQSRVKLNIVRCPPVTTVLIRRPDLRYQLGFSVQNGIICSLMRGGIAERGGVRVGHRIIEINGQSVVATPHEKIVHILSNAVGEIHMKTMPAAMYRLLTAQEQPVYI
T4 sequence (P63165 whole entry): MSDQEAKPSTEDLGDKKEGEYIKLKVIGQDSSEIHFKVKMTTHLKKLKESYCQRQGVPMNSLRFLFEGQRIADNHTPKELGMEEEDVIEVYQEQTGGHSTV
DNA (cytosine-5)-methyltransferase 1, sequence (P26358 whole entry): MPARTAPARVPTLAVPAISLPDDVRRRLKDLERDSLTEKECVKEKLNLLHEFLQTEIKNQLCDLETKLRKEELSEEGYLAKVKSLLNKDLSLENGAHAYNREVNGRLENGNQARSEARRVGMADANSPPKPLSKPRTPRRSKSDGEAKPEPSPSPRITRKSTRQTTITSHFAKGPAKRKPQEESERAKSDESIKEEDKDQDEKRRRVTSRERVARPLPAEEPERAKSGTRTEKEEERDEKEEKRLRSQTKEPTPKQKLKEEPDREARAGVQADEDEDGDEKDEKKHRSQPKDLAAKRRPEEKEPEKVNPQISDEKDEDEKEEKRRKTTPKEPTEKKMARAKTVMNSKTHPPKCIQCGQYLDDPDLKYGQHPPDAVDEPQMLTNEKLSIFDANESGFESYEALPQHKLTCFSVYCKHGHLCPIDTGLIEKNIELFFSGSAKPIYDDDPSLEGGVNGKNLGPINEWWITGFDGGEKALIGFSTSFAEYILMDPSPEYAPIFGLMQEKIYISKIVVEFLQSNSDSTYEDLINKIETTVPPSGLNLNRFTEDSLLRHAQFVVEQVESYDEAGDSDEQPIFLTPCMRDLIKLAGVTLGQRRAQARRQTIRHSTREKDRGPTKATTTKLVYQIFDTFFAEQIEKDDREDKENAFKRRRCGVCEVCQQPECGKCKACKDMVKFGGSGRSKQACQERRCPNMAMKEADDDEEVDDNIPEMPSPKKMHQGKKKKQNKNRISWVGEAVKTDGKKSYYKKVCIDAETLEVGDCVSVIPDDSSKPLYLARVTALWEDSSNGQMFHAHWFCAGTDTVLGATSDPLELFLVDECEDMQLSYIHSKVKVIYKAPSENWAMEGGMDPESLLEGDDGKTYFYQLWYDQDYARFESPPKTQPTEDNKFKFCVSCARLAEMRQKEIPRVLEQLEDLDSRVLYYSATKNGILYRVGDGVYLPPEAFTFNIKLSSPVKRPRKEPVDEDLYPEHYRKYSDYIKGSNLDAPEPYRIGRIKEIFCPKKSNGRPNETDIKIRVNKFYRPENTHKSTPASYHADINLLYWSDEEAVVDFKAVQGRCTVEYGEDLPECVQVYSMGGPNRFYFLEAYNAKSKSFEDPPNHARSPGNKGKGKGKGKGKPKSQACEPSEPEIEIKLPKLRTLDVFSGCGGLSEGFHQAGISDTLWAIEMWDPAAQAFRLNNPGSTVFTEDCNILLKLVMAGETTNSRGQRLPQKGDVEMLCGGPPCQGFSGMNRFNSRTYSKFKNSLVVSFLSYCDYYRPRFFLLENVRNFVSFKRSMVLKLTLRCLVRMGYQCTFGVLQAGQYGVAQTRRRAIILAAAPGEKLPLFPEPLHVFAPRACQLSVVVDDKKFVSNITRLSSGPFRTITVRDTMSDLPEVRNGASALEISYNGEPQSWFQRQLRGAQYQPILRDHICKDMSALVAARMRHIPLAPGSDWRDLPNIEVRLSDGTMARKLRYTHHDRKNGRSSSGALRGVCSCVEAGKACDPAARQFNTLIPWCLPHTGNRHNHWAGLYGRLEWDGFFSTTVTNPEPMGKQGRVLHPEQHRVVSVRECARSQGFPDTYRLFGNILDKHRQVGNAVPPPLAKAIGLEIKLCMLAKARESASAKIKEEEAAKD

CCC(c1nc2ccccc2[nH]1)n1c(=O)c(-c2ccco2)nc2ccccc21 (centres undefined)
IC50 [1]: 3.79 µM (active)

N#CC(c1cccnc1)c1c(Cl)cnn(Cc2cccc3ccccc23)c1=O (centres undefined)
IC50 [2]: 0.975 µM (active)
IC50 [3]: 4.56 µM (active)

C#CCOCCOCCOCCNc1nc(N2CCN(C(=O)[C@H](CCCCN)n3cc([C@@H](N)CO)nn3)CC2)nc(N2CCN(C(=O)[C@H](Cc3ccc(O)cc3)n3cc([C@@H](N)CC(C)C)nn3)CC2)n1
AC50 [4]: 121 µM (active)

CCOC(=O)c1cc(-c2ccc(N3CCOCC3)cc2)nn1-c1ccccc1C(=O)O
IC50 [5]: 5.98 µM (active)
IC50 [6]: > 50 µM (inactive)
IC50 [7]: 5.98 µM (active)
IC50 [8]: 6.99 µM (active)
IC50 [9]: > 66.6 µM (inactive)
IC50 [10]: 1.51 µM (active)
IC50 [11]: 12.3 µM (active)
IC50 [12]: 8.42 µM (active)

CC(C)(C)OC(=O)NCc1ccc(NC(=O)c2[nH]cnc2C(=O)N[C@@H](Cc2ccccc2)C(=O)OCc2ccccc2)cc1
IC50 [13]: > 64.6 µM (inactive)

CCOC(=O)[C@]12Cc3ccccc3[C@H]1N(C1CCCCC1)C(=O)c1cc(OC)ccc12
IC50 [14]: 2.28 µM (active)
IC50 (Beta Lactamase): 48 µM (inactive)
IC50 (Fatty acid synthase): 8.19 µM (active)

Cc1[nH]c(SCc2ccccc2Cl)nc(=O)c1C
CC50 [15]: > 100 µM (active)
CC50 [16]: > 100 µM (active)

Nc1nccc(-c2ccc(-n3cnc4ccccc43)cc2)n1
IC50 (Interleukin-8): 10.2 µM (inactive)
